System: SF1
Assay: Immunoblots of SF1 in WT MEFs treated with TORC1 inhibitors
Format: cell-based
Conditions: mouse embryonic fibroblasts; rapamycin 20 nM, Torin 250 nM
Experimental: To control for the SF1 antibody specificity, WT MEF transfected with non-targeting control siRNAs (siCt) or SF1 siRNA for 72 h and grown in 10% FBS, are shown on the right side of the blot. Biological duplicates are shown except for the siRNA treated lanes.
Immunoblotting was performed as in FIG. 14, Panel G. Biological duplicates are shown except for the siRNA treated lanes.
The inverted splicing reporter WBM535 was made by injecting modified minigene reporter plasmids into N2 worms. The plasmids were made by deleting the (+2) frameshift in the EGFP minigene and inserting a (+2) frameshift into the mCherry minigene. Worms were grown and maintained on standard nematode growth media (NGM) seeded with E. coli (OP50-1). E. coli bacteria were cultured overnight in LB at 37° C., after which 100 μl of liquid culture was seeded on plates to grow for 2 days at room temperature. Lifespans—All lifespans were conducted at 20° C. unless otherwise noted in figure legend. Lifespans were performed as described in Burkewitz et al. (93). Graphpad Prism 6 was used to plot survival curves and determine median lifespan. Survival curves were compared and p values calculated using the log-rank (Mantel-Cox) analysis method. […] RNA interference—All RNAi constructs came from the Ahringer RNAi library, except hrp-2 and hrpf-1 RNAi constructs, which originated from the Vidal RNAi library. RNAi experiments were carried out using E. coli HT115 bacteria on standard NGM plates containing 100 μg/ml Carbenicillin. […] NGM plus Carbenicillin plates were seeded 48 hours before use. Respective dsRNA expressing HT115 bacteria were induced by adding 100 μl IPTG (100 mM) one hour before introducing worms to the plate. RNAi was induced for all experiments from egg hatch. Solid plate-based dietary restriction assays—Solid sDR assays were performed as described by Ching et al. (79). Plates were prepared in advance and stored at 4° C.

Structure (SMILES)	total SF1 levels	SF1 gel shifts indicative of altered phosphorylation
CO[C@H]1C[C@@H]2CC[C@@H](C)[C@@](O)(O2)C(=O)C(=O)N2CCCC[C@H]2C(=O)O[C@H]([C@H](C)C[C@@H]2CC[C@@H](O)[C@H](OC)C2)CC(=O)[C@H](C)/C=C(\C)[C@@H](O)[C@@H](OC)C(=O)[C@H](C)C[C@H](C)/C=C/C=C/C=C/1C [rapamycin]	no effect	–
CCC(=O)N1CCN(c2ccc(-n3c(=O)ccc4cnc5ccc(-c6cnc7ccccc7c6)cc5c43)cc2C(F)(F)F)CC1 [torin, Torin1]	no effect	nor did were SF1 gel shifts indicative of altered phosphorylation seen
